Source: patent US6627630B1, “Condensed pyridazine derivatives, their production and use” (Takeda Chemical Industries, Ltd., priority 1998, dated 2003)
Structures can show the parent of a compound that is named as a salt.

melting point [°C]	Compound
150 to 152	CC(C)(C)c1cc2ncnn2nc1OCCOCCN1CCN(C(c2ccccc2)c2ccccc2)CC1 (as salt: hydrochloride) [Example 62A, 7-t-Butyl-6-[2-[2-[4-(Diphenylmethyl)-1-piperazinyl]ethoxy]ethoxy][1,2,4]triazolo[1,5-b]pyridazine Dihydrochloride]
101 to 103	Cc1nc2ccc(NCCCN3CCC(OC(c4ccccc4)c4ccccc4)CC3)nn2c1C(=O)O [Example 107A, [6-[3-[4-(Diphenylmethoxy)piperidino]propylamino]-2-methylimidazo[1,2-b]pyridazin-3-yl]carboxylic Acid]
171	O=C(O)CNC(=O)c1cn2nc(NCCCN3CCC(OC(c4ccccc4)c4ccccc4)CC3)ccc2n1 [Example 72A, N-[6-[3-[4-(Diphenylmethoxy)piperidino]propylamino]imidazo[1,2-b]pyridazine-2-carbonyl]glycine]
184 to 186	CC(C)(C(=O)O)c1nc2ccc(NCCCN3CCN(C(c4ccccc4)c4ccccc4)CC3)nn2c1Cl [Example 85A, 2-[3-Chloro-6-[3-[4-(diphenylmethyl)-1-piperazinyl]propylamino]imidazo[1,2-b]pyridazin-2-yl]-2-methylpropionic Acid]
115 to 117	O=C(O)C1(c2cn3nc(NCCCN4CCC(OC(c5ccccc5)c5ccccc5)CC4)ccc3n2)CC1 [Example 100A, 1-[6-[3-[4-(Diphenylmethoxy)piperidino]propylamino]imidazo[1,2-b]pyridazin-2-yl]cyclopropanecarboxylic Acid]
172 to 174	CCOC(=O)CNC(=O)c1cn2nc(NCCCN3CCC(OC(c4ccccc4)c4ccccc4)CC3)ccc2n1 [Example 70A, N-[6-[3-[4-(Diphenylmethoxy)piperidino]propylamino]imidazo[1,2-b]pyridazine-2-carbonyl]glycine Ethyl Ester]
195 to 205	CC(C)(C(=O)O)c1cn2nc(CCCN3CCC(OC(c4ccccc4)c4ccccc4)CC3)ccc2n1 [Example 102A, 2-[6-[3-[4-(Diphenylmethoxy)piperidino]propyl]imidazo[1,2-b]pyridazin-2-yl]-2-methylpropionic Acid]
108 to 110	CC(C)(C(=O)O)c1cn2nc(CCCCN3CCN(C(c4ccccc4)c4ccccc4)CC3)ccc2n1 [Example 95A, 2-[6-[4-[4-(Diphenylmethyl)-1-piperazinyl]butyl]imidazo[1,2-b]pyridazin-2-yl]-2-methylpropionic Acid]
105 to 108	CC(C)(CO)c1cn2nc(NCCCN3CCC(OC(c4ccccc4)c4ccccc4)CC3)ccc2n1 [Example 75A, 2-[6-[3-[4-(Diphenylmethoxy)piperidino]propylamino]imidazo[1,2-b]pyridazin-2-yl)-2-methylpropanol]
122	Cc1cc2nc(C(C)(C)C(=O)O)cn2nc1OCCCN1CCC(OC(c2ccccc2)c2ccccc2)CC1 [Example 89A, 2-[6-[3-[4-(Diphenylmethoxy)piperidino]propoxy]-7-methylimidazo[1,2-b]pyridazin-2-yl]-2-methylpropionic Acid]
135 to 138	O=C(O)c1nc2ccc(NCCCN3CCC(OC(c4ccccc4)c4ccccc4)CC3)nn2n1 [Example 117A, [6-[3-[4-(Diphenylmethoxy)piperidino]propylamino][1,2,4]triazolo[1,5-b]pyridazin-2-yl]carboxylic Acid]
176 to 178	CC(C)(C(=O)O)c1cn2nc(CCCN3CCN(C(c4ccccc4)c4ccccc4)CC3)ccc2n1 [Example 104A, 2-[6-[3-[4-(Diphenylmethyl)-1-piperazinyl]propyl]imidazo[1,2-b]pyridazin-2-yl]-2-methylpropionic Acid]
82 to 87	OC(CNc1ccc2ncnn2n1)CN1CCC(OC(c2ccccc2)c2ccccc2)CC1 (centres unmarked) [Example 115A, 1-[4-(Diphenylmethoxy)piperidino]-3-[([1,2,4]triazolo[1,5-b]pyridazin-6-yl)amino]-2-propanol]
178 to 180	CCOC(=O)CNC(=O)c1nc2ccc(NCCCN3CCC(OC(c4ccccc4)c4ccccc4)CC3)nn2c1Cl [Example 111A, N-[3-Chloro-6-[3-[4-(diphenylmethoxy)piperidino]propylamino]imidazo[1,2-b]pyridazine-2-carbonyl]glycine Ethyl Ester]
173 to 177	O=C(O)c1nc2ccc(OCCCN3CCC(OC(c4ccccc4)c4ccccc4)CC3)nn2n1 [Example 123A, [6-[3-[4-(Diphenylmethoxy)piperidino]propoxy][1,2,4]triazolo[1,5-b]pyridazin-2-yl]carboxylic Acid]
96 to 98	c1ccc(C(OC2CCN(CCCCCNc3ccc4ncnn4n3)CC2)c2ccccc2)cc1 [Example 114A, 6-[5-[4-(Diphenylmethoxy)piperidino]pentylamino][1,2,4]triazolo[1,5-b]pyridazine]

The remaining lines, values behind:

Compound	melting point [°C]
COC(=O)c1nc2ccc(NCCCN3CCC(OC(c4ccccc4)c4ccccc4)CC3)nn2n1 [Example 36A, Methyl 6-[3-[4-(Diphenylmethoxy)piperidino]propylamino][1,2,4]triazolo[1,5-b]pyridazine-2-carboxylate]	93 to 96
c1ccc(C(OC2CCN(c3ccc4ncnn4n3)CC2)c2ccccc2)cc1 [Example 11A, 6-[4-(Diphenylmethoxy)piperidino][1,2,4]triazolo[1,5-b]pyridazine]	137 to 139
c1ccc(C(OC2CCN(CCCOc3ccc4ncnn4n3)CC2)c2ccccc2)cc1 (as salt: fumarate) [Example 2A, 6-[3-[4-(Diphenylmethoxy)piperidino]propoxy][1,2,4]triazolo[1,5-b]pyridazine Fumarate]	157 to 159
c1ccc(-c2nc3ccc(NCCCN4CCC(OC(c5ccccc5)c5ccccc5)CC4)nn3n2)cc1 [Example 32A, 6-[3-[4-(Diphenylmethoxy)piperidino]propylamino]-2-phenyl[1,2,4]triazolo[1,5-b]pyridazine]	170 to 172
Cc1cc2ncnn2nc1OCCOCCN1CCN(C(c2ccccc2)c2ccccc2)CC1 [Example 47A, 6-[2-[2-[4-(Diphenylmethyl)-1-piperazinyl]ethoxy]ethoxy]-7-methyl[1,2,4]triazolo[1,5-b]pyridazine]	71 to 72
O=C(CN1CCN(C(c2ccccc2)c2ccccc2)CC1)Nc1ccc2ncnn2n1 [Example 24A, 2-[4-(Diphenylmethyl)-1-piperazinyl]-N-([1,2,4]triazolo[1,5-b]pyridazin-6-yl)acetamide]	203 to 204
Cc1cc2ncnn2nc1OCCCCCCN1CCN(C(c2ccccc2)c2ccccc2)CC1 (as salt: hydrochloride) [Example 51A, 6-[6-[4-(Diphenylmethyl)-1-piperazinyl]hexyloxy]-7-methyl[1,2,4]triazolo[1,5-b]pyridazine Dihydrochloride]	170 to 172
c1ccc(C(OC2CCN(CCCCNc3ccc4ncnn4n3)CC2)c2ccccc2)cc1 [Example 12A, 6-[4-[4-(Diphenylmethoxy)piperidino]butylamino][1,2,4]triazolo[1,5-b]pyridazine]	102 to 104
Cc1cc2ncnn2nc1OCCOCCN1CCC(OC(c2ccccc2)c2ccccc2)CC1 [Example 53A, 6-[2-[2-[4-(Diphenylmethoxy)piperidino]ethoxy]ethoxy]-7-methyl[1,2,4]triazolo[1,5-b]pyridazine]	80 to 82
OC(COc1ccc2ncnn2n1)CN1CCC(OC(c2ccccc2)c2ccccc2)CC1 (centres unmarked) [Example 16A, 1-[4-(Diphenylmethoxy)piperidino]-3-([1,2,4]triazolo[1,5-b]pyridazin-6-yloxy)-2-propanol]	133 to 135
O=C(CN1CCC(OC(c2ccccc2)c2ccccc2)CC1)Nc1ccc2ncnn2n1 [Example 23A, 2-[4-(Diphenylmethoxy)piperidino]-N-([1,2,4]triazolo[1,5-b]pyridazin-6-yl)acetamide]	158 to 160
COc1cn2nc(OCCCN3CCC(OC(c4ccccc4)c4ccccc4)CC3)ccc2n1 [Example 41A, 6-[3-[4-(Diphenylmethoxy)piperidino]propoxy]-2-methoxyimidazo[1,2-b]pyridazine]	133 to 135
CC(C)c1cc2ncnn2nc1SCCCN1CCN(C(c2ccccc2)c2ccccc2)CC1 [Example 9A, 6-[3-[4-(Diphenylmethyl)-1-piperazinyl]propylthio]-7-isopropyl[1,2,4]triazolo[1,5-b]pyridazine]	137 to 139
c1ccc(C(c2ccccc2)N2CCN(CCCNc3ccc4ncnn4n3)CC2)cc1 [Example 5A, 6-[3-[4-(Diphenylmethyl)-1-piperazinyl]propylamino][1,2,4]triazolo[1,5-b]pyridazine]	139 to 140
c1ccc(C(OC2CCN(CCCNc3ccc4ncnn4n3)CC2)c2ccccc2)cc1 [Example 6A, 6-[3-[4-(Diphenylmethoxy)piperidino]propylamino][1,2,4]triazolo[1,5-b]pyridazine]	136 to 138
CC(C)(C)c1cc2ncnn2nc1SCCOCCN1CCN(C(c2ccccc2)c2ccccc2)CC1 [Example 60A, 6-[2-[2-[4-(Diphenylmethyl)-1-piperazinyl]ethoxy]ethylthio]-7-t-butyl[1,2,4]triazolo[1,5-b]pyridazine]	106 to 108
Cc1nc2ccc(OCCCN3CCC(OC(c4ccccc4)c4ccccc4)CC3)nn2n1 [Example 21A, 6-[3-[4-(Diphenylmethoxy)piperidino]propoxy]-2-methyl[1,2,4]triazolo[1,5-b]pyridazine]	134 to 136
O=C(OCCOc1ccc2ncnn2n1)N1CCN(C(c2ccccc2)c2ccccc2)CC1 [Example 26A, 6-[2-[4-(Diphenylmethyl)-1-piperazinyl-carbonyloxy]ethoxy][1,2,4]triazolo[1,5-b]pyridazine]	157 to 159
CC(C)c1cc2ncnn2nc1OCCOCCN1CCN(C(c2ccccc2)c2ccccc2)CC1 [Example 61A, 6-[2-[2-[4-(Diphenylmethyl)-1-piperazinyl]ethoxy]ethoxy]-7-isopropyl[1,2,4]triazolo[1,5-b]pyridazine]	119 to 120
